From patent publication US20080026067A1, “Method for Increasing Specific Surface Area of Slightly Soluble Drug” (priority 2004, published 2008)

What was measured:
Type in all cases: physicochemical
[1] = Accelerated test (storage stability: purity by HPLC, degree of moisture by Karl Fisher); conditions: for Degree of moisture (%) / Purity (%): crushing composition; for change (increase) of degree of moisture / decrease of purity: over 6 months at 40°C
Description: 1 g of the powder of compound A was poured into the two-lay plastic bag and closed firmly with banding band. This was poured into miniature fiber dram and then this was preserved in the stability tester under the condition for 6 months, at 40° C., at 75% relative humidity. And then, the purity (quantitative value) and the degree of moisture (%) of the powder of compound A were measured. The measurement of the degree of moisture was performed by known method: the moisture vaporization method/Karl Fisher electrometrical titration method. The measurement of purity was performed by high performance liquid chromatography (HPLC).
About 0.04 mg/mL N,N-dimethylformamide/acetontirile (3/7) solution of reference material and measurement sample of compound A was prepared. In this case, the concentration of the solutions was precisely found. These solutions was set under the below test condition and the purity of measurement sample was calculated from the obtained area value of the peak.
• The detector: ultraviolet absorptiometer (measurement wavelength: 278 nm), • The column: YMC-Pack ODS-A-302 (inside diameter 4.6 mm, length 15 cm), • The mobile phase: acetonitrile/5 mmol/L sodium acetate buffer (It was prepared to pH 4.5 using acetate.)/2-propanol mixture (5/4/1), • The flow: The retention time of the compound A was prepared to be about 12 minutes (about 1.0 mL/min), • The column temperature: the constant temperature in the vicinity of 40° C. • The injection volume: 20 μL.

[2] = Measurement of bulk density
Description: A bulk density of a powder of the compound A is preferably in the range of about 0.05 to about 0.3 g/cm^3, and more preferably in the range of about 0.05 to about 0.2 g/cm^3. A bulk density can be measured by known method. It includes, for example, the method that about 3 g sample is precisely weighed, it is put into dried 50 mL graduated cylinder (scale: by 0.1 mL) without consolidation, it reads to minimum unit of scale and value that the weight (g) of particulate is divided by the volume (cm^3) of particulate is assumed bulk density (g/cm^3), and method described in the following Examples and so on.
About 3 g of compound A is precisely weighed, it is put into dried 50 mL graduated cylinder (scale: by 0.1 mL) without consolidation, it reads to minimum unit of scale. The value that the weight (g) of particulate is divided by the volume (cm^3) of particulate is assumed bulk density (g/cm^3). As a result, the bulk density of the powder of compound A prepared in Adjustment Example 4(3) was 0.18 g/cm^3 (non-crushing composition) and […] (crushing composition). The bulk density of compound A prepared in Adjustment Example 4(4) was 0.18 g/cm^3 (non-crushing composition) and 0.08 g/cm^3 (crushing composition).

[3] = Specific surface area of the powder, multipoint BET method
Description: A specific surface area of a powder of the compound A obtained by the above-described methods and the following Examples can be measured by known method, for example, multipoint BET method.
A specific surface area of the compound A was adjusted to give the crystalline powders with different specific surface area by the following method. As well, the measurement of specific surface area was performed by multipoint BET method.

[4] = Measurement of tap density; conditions: tapped 3 minutes at 60 times/minute
Description: A tap density of a powder of the compound A is preferably in the range of about 0.1 to about 0.4 g/cm^3, and more preferably in the range of about 0.1 to about 0.3 g/cm^3. A tap density can be measured by known method. It includes, for example, the method that about 3 g sample is precisely weighed, it is put into dried 50 mL graduated cylinder (scale: by 0.1 mL) without consolidation, the graduated cylinder is set on tapping machine for tap density, then it is tapped for 3 minutes at 60 times/minute, final tap density is found, and value that the weight (g) of particulate is divided by final tap density (cm^3) of particulate is assumed tap density (g/cm^3), and method described in the following Examples and so on.
About 3 g of the powder of compound A is precisely weighed, it is put into dried 50 mL graduated cylinder (scale: by 0.1 mL) without consolidation, the graduated cylinder is set on tapping machine for tap density, then it is tapped for 3 minutes at 60 times/minute, final tap density is found. The value that the weight (g) of particulate is divided by final bulk density (cm^3) of particulate is assumed tap density (g/cm^3). As a result, the tap density of the powder of compound A prepared in Adjustment Example 4(3) was 0.28 g/cm^3 (non-crushing composition) and 0.13 g/cm^3 (crushing composition). The tap density of tie powder of compound A prepared in Adjustment Example 4(4) was 0.23 g/cm^3 (non-crushing composition) and 0.16 g/cm^3 (crushing composition).[

[5] = Dissolution test (Japanese Pharmacopoeia method 2, Paddle method); conditions: pH 6.8 McIlvaine buffer, 2.0% (w/v) sodium lauryl sulfate, 900 mL, 37°C, 50 rpm, 30 mg
Description: In the present invention, the dissolution rate in the dissolution test, according to dissolution test method 2 (Paddle method) of general test in the Japanese Pharmacopoeia, is the value that the method is performed on condition that 50 rounds per minute in pH6.8 McIlvaine buffer solution including 2.0% (w/v) sodium lauryl sulfate. More detail, it includes the method described in the following method or the method pursuant thereof and so on.
The powder of compound A prepared in the above described Preparation Example 4 (specific surface area=12.51 m^2/g) and Preparation Example 6 (specific surface area=5.46 m^2/g) was sieved by 60 mesh sieve (250 μm) respectively and the sieved material was weighed out 30 mg and then poured into the test solution. The dissolution test was performed under the below described condition of the dissolution test. However, the compound A was suspended with about 2 mL test solution and then the compound A poured into the test solution. The eluate 10 mL obtained at each sampling time was filtrated with membrane filter having 0.45 μm pore diameter. The first filtrate 2 mL was removed and the rest of filtrate was as the solution of test material. The compound A prepared in Preparation Example 12 was precisely weighed out about 33.3 mg and it was dissolved by adding methanol to adjust 100 mL. Among this solution, 5 mL was weighed out and it was added by test solution to adjust 50 mL. It was made as the standard solution (0.0333 mg/mL) that […] of the compound A was dissolved. The absorbance of the solution of test material and standard solution in wavelength 278 nm was measured by the measurement of ultraviolet visible absorbance respectively and according to the below formula, the dissolution rate was found.
The Dissolution Test Condition:
• Apparatus: The Japanese Pharmacopoeia, general test, dissolution test method 2 (Paddle method), • Test solution; McIlvaine buffer solution containing of 2.0% (w/v) sodium lauryl sulfate, pH 6.8 • Test solution volume: 900 mL • Temperature: 37±0.5° C. • Rotation speed: 50 rotations per minute • Sampling volume of eluate: 10 mL • Sampling time: 5, 10, 15, 30, 45, 60 and 90 minutes. [formula] [formula] • W: The volume of compound A containing of standard solution (33.3 mg) • t: The number of sampling • C: The volume of compound A poured into the test solution (30 mg) • Ct: The concentration of compound A in the solution of test material at t times sampling • ΣCn: The sum of the concentration of compound A in the solution of test material from n=1 to t−1 • At: The absorbance of the solution of test material • As: The average of absorbance of the […] of repeated measurement at three times • V: The volume of the test solution (900 mL) • v: The sampling volume of the eluate (10 mL)

[6] = 6 months at 40°C, 75% relative humidity
[7] = crushing composition (jet mill crushed)

Degree of moisture (%) ([1]; 0 month) | Purity (%) ([1]; 0 month) | Degree of moisture (%) [1, 6] | Purity (%) [1, 6] | change (increase) of degree of moisture ([1]; 75% relative humidity) | decrease of purity ([1]; 75% relative humidity) | bulk density ([2]; crushing composition) | bulk density ([2]; non-crushing composition) | specific surface area [3, 7] | specific surface area ([3]; non-crushing composition) | tap density ([4]; crushing composition) | tap density ([4]; non-crushing composition) | Dissolution rate (%) ([5]; 0 minutes) | Dissolution rate (%) ([5]; 5 minutes) | Dissolution rate (%) ([5]; 10 minutes) | Dissolution rate (%) ([5]; 15 minutes) | Dissolution rate (%) ([5]; 30 minutes) | Dissolution rate (%) ([5]; 45 minutes) | Dissolution rate (%) ([5]; 60 minutes) | specific surface area ([3]; powder as obtained) | Structure (SMILES) | further results
0.1% | 98.5% | 0.1% | 98.2% | no change | 0.3% | 0.08 g/mL | 0.18 g/mL | 13.4 m^2/g | 11.2 m^2/g | 0.16 g/mL | 0.23 g/mL |  |  |  |  |  |  |  |  | Cc1ccc(-c2nc(CCOc3cccc4c3CCC=C4CCC(=O)O)c(C)o2)cc1 [Adjustment Example 4(4), 3-(5-{2-[5-methyl-2-(4-methylphenyl)-1,3-oxazol-4-yl]ethoxy}-3,4-dihydronaphthalen-1-yl)propanoic acid] | long-term storage stability [1, 6]: stable in long-term storage
0.3% | 95.4% | 0.6% | 94.4% | 0.3% | 1.0% |  |  | 20.6 m^2/g | 19.6 m^2/g |  |  |  |  |  |  |  |  |  |  | Cc1ccc(-c2nc(CCOc3cccc4c3CCC=C4CCC(=O)O)c(C)o2)cc1 [Adjustment Example 3, 3-(5-{2-[5-methyl-2-(4-methylphenyl)-1,3-oxazol-4-yl]ethoxy}-3,4-dihydronaphthalen-1-yl)propanoic acid] | 
 |  |  |  |  |  | 0.8 g/mL | 0.18 g/mL | 12.7 m^2/g | 11.0 m^2/g | 0.13 g/mL | 0.28 g/mL |  |  |  |  |  |  |  |  | Cc1ccc(-c2nc(CCOc3cccc4c3CCC=C4CCC(=O)O)c(C)o2)cc1 [Adjustment Example 4(3), 3-(5-{2-[5-methyl-2-(4-methylphenyl)-1,3-oxazol-4-yl]ethoxy}-3,4-dihydronaphthalen-1-yl)propanoic acid] | 
 |  |  |  |  |  |  |  |  |  |  |  | 0.00% | 65.46% | 76.67% | 82.17% | 88.95% | 92.15% | 94.10% | 12.51 m^2/g | Cc1ccc(-c2nc(CCOc3cccc4c3CCC=C4CCC(=O)O)c(C)o2)cc1 [Adjustment Example 4, 3-(5-{2-[5-methyl-2-(4-methylphenyl)-1,3-oxazol-4-yl]ethoxy}-3,4-dihydronaphthalen-1-yl)propanoic acid] | Dissolution rate (%) ([5]; 90 minutes): 96.20%
 |  |  |  |  |  |  |  |  |  |  |  | 0.00% | 32.3% | 41.7% | 48.0% | 58.5% | 64.3% | 68.0% | 5.46 m^2/g | Cc1ccc(-c2nc(CCOc3cccc4c3CCC=C4CCC(=O)O)c(C)o2)cc1 [Adjustment Example 6, 3-(5-{2-[5-methyl-2-(4-methylphenyl)-1,3-oxazol-4-yl]ethoxy}-3,4-dihydronaphthalen-1-yl)propanoic acid] | 
